From patent US11708340B2, “Benzothia(di)azepine compounds and their use as bile acid modulators” (Albireo AB, priority 2019, dated 2023)

Assays:
[1] = Bidirectional permeability assay (Caco-2 cells); format: in vitro ADME; details: human, 10 μM in FaSSIF buffer; for Papp A→B at 120 min, 10 μM: Caco-2, pH 7.4, absorptive direction (A2B); for Papp B→A at 120 min, 10 μM: Caco-2, pH 7.4, secretory direction (B2A)
Description: HepaRG-Based Assay Protocol

Human LBAT = target: T1, Human LBAT (Homo sapiens, UniProt Q14973); test: LBAT (h/m) assay, human LBAT-overexpressing cells, 3H-taurocholic acid uptake; format: cell-based; details: 0.3 μM 3H-taurocholic acid and 7.5 μM cold taurocholic acid, 20 minutes, read-out: hLBAT IC50
T1 construct: expressed in transfected cells; Geneticin selection
T1 sequence (Q14973 1-349): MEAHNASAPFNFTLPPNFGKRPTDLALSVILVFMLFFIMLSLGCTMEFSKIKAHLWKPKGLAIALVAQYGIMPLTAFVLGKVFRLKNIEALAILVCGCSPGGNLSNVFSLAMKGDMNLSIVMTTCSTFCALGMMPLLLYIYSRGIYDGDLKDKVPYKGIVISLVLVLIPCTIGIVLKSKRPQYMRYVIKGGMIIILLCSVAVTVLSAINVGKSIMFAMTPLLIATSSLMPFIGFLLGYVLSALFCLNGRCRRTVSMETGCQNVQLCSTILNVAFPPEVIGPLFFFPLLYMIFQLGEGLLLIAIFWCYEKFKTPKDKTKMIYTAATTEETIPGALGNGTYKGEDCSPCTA
Experimental: 20,000 cells (Human or Mouse LBAT-overexpressing cells) were seeded in 96-wells plate (Corning CLS3809) in 100 μL MEM-alpha medium (Gibco 12571-063) supplemented with 10% FBS (Gibco 10438026) containing Geneticin (Gibco 10131-027) (1 mg/mL) and incubated at 37° C. in 5% CO2 for 24 hours. After incubation, media was decanted from the wells and cells were washed two times with 300 μL of basal MEM-alpha medium (FBS-free). After decanting basal MEM-alpha medium each time, plates were tapped against paper towel to ensure maximum removal of residual media.
For human LBAT, incubation mix was prepared by adding test inhibitor dilutions (3-fold serial dilution in DMSO (Sigma D2650), 10 points) in MEM-alpha (without FBS) containing 0.3 μM 3H-taurocholic acid (ARC ART-1368) and 7.5 μM cold taurocholic acid (Sigma T4009) (maintaining 0.2% final DMSO concentration). For mouse LBAT, incubation mix was prepared by adding test inhibitor dilutions (3-fold serial dilution in DMSO, 10 points) in MEM-alpha (without FBS) containing 0.3 μM 3H-taurocholic acid and 25 μM cold taurocholic acid maintaining 0.2% final DMSO concentration).
50 μL of incubation mix containing test inhibitors was then added to the wells (in duplicate) and the plates were incubated for 20 minutes in a CO2 incubator at 37° C. After incubation, the reaction was stopped by keeping the plates on ice water mix for 2-3 minutes and then the incubation mix was aspirated completely from the wells. The wells were washed two times with 250 μL of chilled unlabeled 1 mM taurocholic acid dissolved in HEPES (Gibco 15630080)-buffered (10 mM) HBSS (Gibco 14175079) (pH 7.4). The plates were tapped against a paper towel after every wash to ensure maximum removal of blocking buffer.
100 μL of MicroScint-20 (PerkinElmer 6013621) was added to the wells and kept overnight at room temperature before reading the plates in TopCount NXT™ Microplate Scintillation and Luminescence Counter from PerkinElmer under 3H Test protocol (set at 120 seconds reading time per well, with normal plate orientation).
(§1) All test compounds were provided in powder form at room temperature. 10 mM DMSO stocks of the test compounds were prepared, aliquoted and stored at −20° C. From the 10 mM DMSO stock of the compounds, a 3-fold serial dilution in DMSO was prepared to get a total of 10 dilutions of the test compounds. 0.5 μL of this dilution in DMSO was added to 250 μL of FBS-free basal media containing 3H-taurocholic acid and cold taurocholic acid to prepare the incubation mixture.

Human IBAT = target: T2, Human IBAT (Homo sapiens, UniProt Q12908); test: IBAT (h/m) assay, human IBAT-overexpressing cells, 3H-taurocholic acid uptake; format: cell-based; details: highest test concentration 10 μM, 20 minutes, read-out: hIBAT IC50
T2 construct: expressed in transfected cells; Puromycin selection
T2 sequence (Q12908 1-348): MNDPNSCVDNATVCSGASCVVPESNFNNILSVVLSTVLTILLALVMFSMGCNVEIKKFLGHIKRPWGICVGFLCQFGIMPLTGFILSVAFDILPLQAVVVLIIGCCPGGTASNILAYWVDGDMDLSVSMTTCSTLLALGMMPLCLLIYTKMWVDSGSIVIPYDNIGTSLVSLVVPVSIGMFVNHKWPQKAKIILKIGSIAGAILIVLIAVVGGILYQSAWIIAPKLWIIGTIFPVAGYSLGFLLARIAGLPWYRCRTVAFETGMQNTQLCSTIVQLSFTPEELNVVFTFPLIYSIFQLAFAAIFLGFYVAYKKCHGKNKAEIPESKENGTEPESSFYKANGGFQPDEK
Experimental: 10,000 cells (Human or Mouse IBAT-overexpressing cells) were seeded in 96-wells plate (Corning CLS3809) in 200 μL MEM-alpha medium (Gibco 12571-063) supplemented with 10% FBS (Gibco 10438026) containing Puromycin (Gibco A1113803) (10 μg/mL) and incubated at 37° C. in 5% CO2 for 48 hours. After incubation, media was decanted from the wells and cells were washed two times with 300 μL of basal MEM-alpha medium (FBS-free). After decanting basal MEM-alpha medium each time, plates were tapped against paper towel to ensure maximum removal of residual media. Test inhibitor dilutions (highest test concentration being 10 μM, 3-fold serial dilution, 10 points) prepared in DMSO (Sigma D2650) were added in incubation mix (maintaining 0.2% final DMSO concentration) containing 0.25 μM 3H-taurocholic acid (ARC ART-1368) and 5 μM of cold taurocholic acid (Sigma T4009). 50 μL of incubation mix containing test inhibitors was then added to the wells (in duplicate) and the plates were incubated for 20 minutes in a CO2 incubator at 37° C. After incubation, the reaction was stopped by keeping the plates on ice water mix for 2-3 minutes and then the incubation mix was aspirated completely from the wells. The wells were washed two times with 250 μL of chilled unlabeled 1 mM taurocholic acid dissolved in HEPES (Gibco 15630080)-buffered (10 mM) HBSS (Gibco 14175079) (pH 7.4). The plates were tapped against a paper towel after every wash to ensure maximum removal of blocking buffer.
100 μL of MicroScint-20 (PerkinElmer 6013621) was added to the wells and kept overnight at room temperature before reading the plates in TopCount NXT™ Microplate Scintillation and Luminescence Counter from PerkinElmer under 3H Test protocol (set at 120 seconds reading time per well).
as §1

Bioavailability studies = format: in vivo, mice (C57BL/6); details: male, mouse, plasma; C57BL/6 mice; single intravenous dose 1 mg/kg and single oral dose 10 mg/kg
Experimental: Male mice (C57BL/6 or CD1) or Wistar rats of 8-9 weeks old were used. For each test compound, two groups of 3 animals each were used. One group was administered a single intravenous dose of 1 mg/kg (vehicle 100% DMSO) through the tail vein and the other group was administered a single oral dose of 10 mg/kg through gavage needle. The group that was administered an oral dose was fasted overnight. Blood samples were collected after 0.083, 0.25, 0.5, 1, 2, 4, 6, 8 and 24 hours following intravenous administration, and after 0.25, 0.5, 1, 2, 4, 6, 8 and 24 hours following oral administration. Blood samples were taken from saphenous vein. 0.2% EDTA was used as the anticoagulant. The samples were analyzed by a discovery grade bioanalytical method developed for the estimation of test compound in plasma, using an LC-MS/MS system.

OATP KO mice = test: Effect of LBAT selective compounds on serum bile acid levels in OATP KO mice; format: in vivo; details: for effect on serum bile acid levels: oral administration, FIGS. 1 to 4
Description: Male OATP KO mice (Oatp1a/1b cluster knockout mice, Taconic, USA) aged 8 to 9 weeks were used in the studies. After completion of quarantine and acclimatization period, animals were randomized based on body weight into experimental groups (n=4 mice in each). On the experimental day, a baseline blood sample was collected followed by oral dosing of vehicle (0.5% CMC, 0.1% Tween 80) or compound of Example 3, 6, 13 or 15 at the indicated doses. Blood samples were then collected at various time points after dose (indicated in each graph). Blood was allowed to clot, and serum was collected by centrifugation at 3000 g, 4° C. for 15 minutes and stored at −80° C. for further analysis. The total bile acid concentration in each serum sample was determined by using the CELL BIOLABS Total Bile Acids kit (STA631) according to manufacturer's instructions. Mean±SEM, n=4.

Row | Compound | Papp A→B at 120 min, 10 μM [1] | Papp B→A at 120 min, 10 μM [1] | IC50 (Human LBAT) | IC50 (Human IBAT) | bioavailability (Bioavailability studies) | effect on serum bile acid levels (OATP KO mice) | serum bile acids levels (OATP KO mice; oral 30 mg/kg, within one hour after dosing)
1 | CCCCC1CN(c2ccccc2)c2cc(SC)c(O/C=C/C(=O)O)cc2S(=O)(=O)C1 (racemic) [Example 1, (E)-3-((3-butyl-7-(methylthio)-1,1-dioxido-5-phenyl-2,3,4,5-tetrahydro-1,5-benzothiazepin-8-yl)oxy)acrylic Acid] | 25.6 ×10⁻⁶ cm/s | 19.1 ×10⁻⁶ cm/s | 9.9 nM | ≥ 10000 nM | – | – | –
2 | CCCCC1CN(c2ccc(F)cc2)c2cc(SCC)c(O/C=C/C(=O)O)cc2S(=O)(=O)N1C (racemic) [Example 23, (E)-3-((3-butyl-7-(ethylthio)-5-(4-fluorophenyl)-2-methyl-1,1-dioxido-2,3,4,5-tetrahydro-1,2,5-benzothiadiazepin-8-yl)oxy)acrylic Acid] | 12.6 ×10⁻⁶ cm/s | 9.3 ×10⁻⁶ cm/s | 1 nM | 3060 nM | – | – | –
3 | CCCC[C@H]1CN(c2ccccc2)c2cc(SC)c(O/C=C/C(=O)O)cc2S(=O)(=O)C1 (single isomer, unassigned) [Example 3] | 24 ×10⁻⁶ cm/s | 18.8 ×10⁻⁶ cm/s | 4.8 nM | – | 50% | increased serum bile acid levels | –
4 | CCCC[C@@H]1CN(c2ccccc2)c2cc(SC)c(O/C=C(\F)C(=O)O)cc2S(=O)(=O)C1 (single isomer, unassigned) [Example 6] | 2.7 ×10⁻⁶ cm/s | 5.5 ×10⁻⁶ cm/s | 1.4 nM | 1440 nM | 26% | increased serum bile acid levels | –
5 | CCCC[C@@H]1CN(c2ccccc2)c2cc(SC)c(O/C=C(\F)C(=O)O)cc2S(=O)(=O)N1C (single isomer, unassigned) [Example 13] | 3.1 ×10⁻⁶ cm/s | 9.6 ×10⁻⁶ cm/s | 0.6 nM | 568 nM | 61% | increased serum bile acids in a dose-dependent manner | about 100 μmol/L
6 | CCCC[C@H]1CN(c2ccccc2)c2cc(SC)c(O/C=C/C(=O)O)cc2S(=O)(=O)N1C (single isomer, unassigned) [Example 15] | 14.1 ×10⁻⁶ cm/s | 13 ×10⁻⁶ cm/s | 2.2 nM | – | 50% | increased serum bile acid levels | –
7 | CCCC[C@H]1CN(c2ccccc2)c2cc(SCC)c(O/C=C/C(=O)O)cc2S(=O)(=O)N1C (single isomer, unassigned) [Example 18] | 15 ×10⁻⁶ cm/s | 9.7 ×10⁻⁶ cm/s | 2.4 nM | 5280 nM | – | – | –
8 | CCCCC1CN(c2ccccc2)c2cc(SC)c(O/C=C(\F)C(=O)O)cc2S(=O)(=O)C1 (stereo not shown) [Example 4, (Z)-3-((3-butyl-7-(methylthio)-1,1-dioxido-5-phenyl-2,3,4,5-tetrahydro-1,5-benzothiazepin-8-yl)oxy)-2-fluoroacrylic Acid] | 2.4 ×10⁻⁶ cm/s | 6 ×10⁻⁶ cm/s | 1.9 nM | 1510 nM | – | – | –
9 | CCCCC1CN(c2ccccc2)c2cc(SC)c(O/C=C(\F)C(=O)O)cc2S(=O)(=O)N1 (stereo not shown) [Example 10, (Z)-3-((3-butyl-7-(methylthio)-1,1-dioxido-5-phenyl-2,3,4,5-tetrahydro-1,2,5-benzothiadiazepin-8-yl)oxy)-2-fluoroacrylic Acid] | 0.5 ×10⁻⁶ cm/s | 1.9 ×10⁻⁶ cm/s | 1 nM | 1140 nM | – | – | –
